Reference: publication PMC7824033, “Flavones, Flavonols, and Glycosylated Derivatives—Impact on Candida albicans Growth and Virulence, Expression of CDR1 and ERG11, Cytotoxicity” (Pharmaceuticals, 2020)
In brackets after ≈: the same amount, converted by molar mass. Entries after “also recorded” stand apart in the source; their conditions may differ. Read-outs that look alike come from different tables or passages of the source.

Assays:
[1] = tested on: C. albicans 475/15; assay: Microdilution assay, MIC and MFC; assay type: cell-based; details: Candida albicans, C. albicans 475/15, mean ± SD of three replicates
Excerpt: (§1) C. albicans was isolated from oral cavities of patients at ENT Clinic, Clinical Hospital Centre Zvezdara, Belgrade, Serbia after obtaining informed written consent and identified by using CHROMagar plates (Biomerieux, Craponne, France). Strains were maintained on Sabouraud Dextrose Agar (Merck, Darmstadt, Germany) and are deposited at the Mycological Laboratory, Department of Plant Physiology, Institute for Biological Research “Siniša Stanković”, National Institute of Republic of Serbia, University of Belgrade. The collection of samples was approved by the Ethical Committee (Office for Human Research Protection, Zvezdara University Medical Center, Belgrade, Serbia, document issued 26 October 2016).
(§2) Microdilution assay with some modification was used for determination of minimum inhibitory (MIC) and minimum fungicidal concentrations (MFC). Yeast cultures were adjusted to 1.0 × 10^5 CFU/per well with sterile PBS (Phosphate buffered saline, pH 7.4). The 96-well microtiter plates with serially diluted flavonoids (concentration range 0.3–75 µg/mL) in liquid broth were incubated at 37 °C for 24 h. After incubation, MIC and MFC were determined. The lowest concentrations that were not inducing microscopically observed growth were considered as MIC. For microscopic determination of growth, we used inverted microscope Nikon Eclipse TS2 (Amsterdam, Netherland) and examined the fungal growth in the wells of 96-well microtiter plates compared to the control (untreated yeast cells). MFC values were determined as concentrations without visible growth after serial sub-cultivation of 10 µL of samples at 37 °C for 24 h. Ketoconazole and amphotericin B (SigmaAldrich, Darmstadt, Germany) were used as an antifungal control. The tested flavonoids were obtained from Extrasynthese, Rhone, France.

[2] = tested on: C. albicans 10/15; assay: Microdilution assay, MIC and MFC; assay type: cell-based; details: Candida albicans, C. albicans 10/15, mean ± SD of three replicates
Excerpt: as §1, §2

[3] = tested on: C. albicans 527/14; assay: Microdilution assay, MIC and MFC; assay type: cell-based; details: Candida albicans, C. albicans 527/14, mean ± SD of three replicates
Excerpt: as §1, §2

[4] = tested on: C. albicans 13/15; assay: Microdilution assay, MIC and MFC; assay type: cell-based; details: Candida albicans, C. albicans 13/15, mean ± SD of three replicates
Excerpt: as §1, §2

[5] = tested on: C. albicans biofilm; details: cited from earlier work
[6] = tested on: C. albicans 475/15 biofilm formation; assay: Inhibition of biofilm formation (crystal violet); assay type: cell-based, Candida albicans; details: concentration not given
Method: Potential of selected compounds to interfere with C. albicans 475/15 biofilm formation was investigated as previously described. Briefly, C. albicans 475/15 was incubated with serial dilution of the compounds (MIC and subMICs) in YPD medium, in 96-well microtiter plates with adhesive bottom (Sarstedt, Nümbrecht, Germany), at 37 °C for 24 h. After incubation, wells were washed twice with sterile PBS and methanol was added into each well. After fixation, methanol was discarded, and the plate was air dried. Formed biofilms were stained with 0.1% crystal violet (Bio-Merieux, Craponne, France) for 30 min. The plate was gently washed under the tap of water and air dried. The stain bound to the remaining biofilms was dissolved with ethanol (96%, Zorka, Šabac, Serbia). Absorbance was read on a Multiskan™ FC Microplate Photometer, Thermo Scientific™. The percentage of inhibition of biofilm formation was calculated by the formula:[(A620control − A620sample)/A620control] × 100

[7] = tested on: S. aureus efflux; design: method as in PMID 25961825; details: bacterial efflux pumps; cited from earlier work
[8] = tested on: C. albicans 475/15; design: method as in PMID 28827996; details: previously published; cited from earlier work
[9] = tested on: CDR1; assay: Expression of CDR1 (qPCR); assay type: cell-based, Candida albicans; details: treatment with MIC
Method: (§3) Total RNA was isolated as described by Sanglard et al. with some modifications. C. albicans 475/15 was grown with agitation at 30 °C in YEPD until OD540 = 0.4. C. albicans cells were incubated with MIC of compounds in YEPD at 30 °C with agitation for 30 min. Cells were centrifuged (4600 rpm, 4 °C for 5 min (Rotanata 460 R, Hettich, Tuttlingen, Germany)) and the pellet was resuspended in 300 µL of RNA buffer (0.1 M Tris-HCl pH 7.5, 0.1M LiCl, 10mM EDTA, 0.5% SDS). The pellet was homogenized with 200 µL of DEPC treated glass beads and 300 µL of Phenol:Chloroform:Isoamyl Alcohol (Sigma-Aldrich, Darmstadt, Germany) in Precellys Evolution tissue homogenizer (Bertion instruments, Montigny-le-Bretonneux, France) at 4500 rpm for 5 s. After centrifugation (14,000 rpm, 4 °C, 1 min (Universal 32 R, Hettich, Tuttlingen, Germany)) 200 µL of supernatant was vortexed with 250 µL of Phenol:Chloroform:Isoamyl Alcohol for 10 s. Samples were centrifuged (14,000 rpm, 4 °C, 1 min) and 200 µL of supernatant was transferred to new tubes, 400 µL of ice-cold 99% ethanol was added to each tube, and they were kept on dry ice for 10 min. Samples were centrifuged (14,000 rpm, 4 °C, 2 min), pellet was washed with ethanol (70%), left to dry at room temperature, after which it was dissolved in 50 µL of DEPC treated water. Nanodrop (ND-1000, Witec AG, Sursee, Switzerland) was used for determination of concentration and purity of samples. RNA was stored at −80°C.
(§4) Amount of 10 µg RNA was incubated with 5 µL of DNAse buffer and 1 µL of DNAse at 37 °C for 30 min (DNA-free™ DNA Removal Kit, Ambion, Bleiswijk, Netherlands). After addition of DNAse inactivation reagent tubes were kept at room temperature with occasional vortexing for 5 min. Samples were centrifuged (14,000 rpm, 4°C, 2 min) and the concentration and quality of supernatant were analyzed on Nanodrop (ND-1000, Witec AG, Sursee, Switzerland).
(§5) Synthesis of cDNA was done with a Transcriptor High Fidelity cDNA synthesis kit (Roche). RNA (1 µg) was incubated with 60 µM random hexamer primers, in 11.4 µL of total sample volume, at 65 °C for 10 min. The mixture of Transcriptase reaction buffer 5×, Deoxynucleotide mix, DTT, Protector RNAse inhibitor, and Transcriptor High Fidelity Reverse Transcriptase was added to each tube according to manufacturer instructions. Synthesis of cDNA was completed by incubating the mixture at 50 °C for 30 min and 85 °C for 5 min (Peqstar thermocycler, Peqlab, Erlangen, Germany).
(§6) Wells of MicroAmp Fast 96-Well Reaction plate ((0.1 mL), Applied biosystems, Waltham, MA, USA) were incubated with 10 µL of mixture (cDNA, 2× MasterMix, primers, probe (Table 3), and water). Analysis was performed in StepOnePlus Real Time PCR system with relative standard curve method. Expression levels of CDR1 and ERG11 were normalized to expression of ACT1.

[10] = tested on: C. albicans 475/15 hyphal growth; assay: Anti-hyphal forming activity; assay type: cell-based, Candida albicans; details: MIC, 4 h, YPD + 10% FBS
Method: C. albicans 475/15 cells were incubated with MIC of tested compounds in YPD + 10% FBS, at 37 °C, for 4 h. Cells were examined under microscope (Nikon Eclipse TS2, Amsterdam, Netherland) and number of cells, growing in the yeast or hyphal and germ tube formations, was determined. Assay was performed in triplicate and percentage of hyphae was determined.

[11] = in vitro; details: pig
Method: Preparation of PLP2 cell line was performed with freshly harvested porcine liver supplied from a local slaughter house. Tissues from the liver were washed in Hank’s balanced salt solution comprising 100 U/mL penicillin and 100 μg/mL streptomycin and split into 1 × 1 mm^3 explants. Some of the prepared explants were set in 25 cm^2 tissue flasks in Dulbecco’s modified Eagle’s medium (DMEM) with 10% fetal bovine serum (FBS), 2 mM nonessential amino acids, 100 U/mL penicillin, and […] streptomycin, and incubation was conducted at 37 °C with 5% CO2 in a humidified atmosphere. The fresh medium was added every 2 days. Cultivation of the cells was further conducted with direct observation by the phase contrast microscope every 2–3 days. Before confluence was achieved, cells were subcultured and seeded in 96-well plates at a density of 1.0 × 10^4 cells per well and cultivated in DMEM supplemented with 10% FBS, 100 U/mL penicillin, and 100 μg/mL streptomycin. Previously described Sulforhodamine B assay was used for the determination of cytotoxicity. The obtained results were defined as GI50 values corresponding to the compound concentration that inhibits 50% of the net cell growth. Ellipticine was used as a positive control.

[12] = tested on: ERG11; assay: Expression of ERG11 (qPCR); assay type: cell-based, Candida albicans; details: treatment with MIC
Method: as §3, §4, §5, §6

[13] = tested on: HUVE (human umbilical vein endothelial) cells; details: read-out: LC50; cited from earlier work

Structure (SMILES)	MFC ([1]; read-out: MFC)	MIC ([1]; read-out: MIC)	MFC ([2]; read-out: MFC)	MIC ([2]; read-out: MIC)	MFC ([3]; read-out: MFC)	MIC ([3]; read-out: MIC)	MFC ([4]; read-out: MFC)	MIC ([4]; read-out: MIC)	antibiofilm effect ([5]; 125 µg/mL, oral and reference isolates SC5314 and 3153A)	concentration necessary for biofilm reduction ([5]; C. albicans ATCC 90028)	reduction of biofilm formation [6]	concentration that inhibited bacterial efflux pumps [7]	MIC [8]	CDR1 expression level, log2FC ([9]; 30 min, normalized to ACT1)	impact on CDR1 expression ([9]; listed as apigenin)	reduction of hyphal growth (words) [10]	GI50 [11]	impact on ERG11 expression (words) [12]	impact on ERG11 expression (words) ([12]; listed as apigenin)	CC50 [13]
C[C@@H]1[C@H](O)[C@@H](C)/C=C/C=C/C=C/C=C/C=C/C=C/C=C/[C@H](O[C@@H]2O[C@H](C)[C@@H](O)[C@H](N)[C@@H]2O)C[C@@H]2O[C@](O)(C[C@@H](O)C[C@@H](O)[C@H](O)CC[C@@H](O)C[C@@H](O)CC(=O)O[C@H]1C)C[C@H](O)[C@H]2C(=O)O [Amphotericin B, amphotericin B, reference compound]	1.25 ± 0.002 mg/L (≈ 1.35 µM)	0.63 ± 0.001 mg/L (≈ 0.682 µM)	1.25 ± 0.002 mg/L (≈ 1.35 µM)	0.63 ± 0.001 mg/L (≈ 0.682 µM)	1.25 ± 0.002 mg/L (≈ 1.35 µM)	0.63 ± 0.001 mg/L (≈ 0.682 µM)	1.25 ± 0.002 mg/L (≈ 1.35 µM)	0.63 ± 0.001 mg/L (≈ 0.682 µM)												
O=c1cc(-c2ccc(O)cc2)oc2cc(O)cc(O)c12 [Apigenin, apigenin]									did not show any antibiofilm effect	5 µg/mL	more than 50%	38 µg/mL	100 mg/L (≈ 370 µM)	< −1 log2FC	downregulated; also recorded: inhibitory impact; also recorded: lowering CDR1 expression	lowest number of cells growing in the hyphal form	> 400 mg/L	negative impact	lower expression levels; also recorded: lowering ERG11 expression	110 µM
Cc1c2ccncc2c(C)c2c1[nH]c1ccccc12 [Ellipticin, Ellipticine, reference compound]																	3.22 ± 0.2 mg/L (≈ 13.1 µM)			
